Test results from publication PMC4640093, “Lipophilic prodrugs of nucleoside triphosphates as biochemical probes and potential antivirals” (Nature Communications, 2015).

What was measured:
[1] = Chemical hydrolysis in PBS, pH 7.3; type: physicochemical; conditions: for t1/2(1) PBS, pH=7.3: removal of first masking unit (half-lives of 3); for t1/2(1) PBS, pH=7.3 / t1/2(2) PBS, pH=7.3: PBS pH 7.3, 37 °C; for t1/2(2) PBS, pH=7.3: second hydrolysis step, half-lives of intermediate 4 to give d4TTP 19
Procedure: Stock solutions (50 mM in DMSO-d6) of the appropriate compounds were prepared. After dilution of 11 μl with 100 μl Millipore water and 189 μl DMSO-d6 to 1.9 mM hydrolysis solutions the reaction was started by the addition of 300 μl PBS (50 mM, pH 7.3). The solution was incubated at 37 °C in a thermomixer. An initial aliquot (25 μl) was taken directly and analysed by analytical HPLC at 265–266 nm. Further aliquots were taken for monitoring the kinetic hydrolysis. The exponential decay curves (pseudo-first order) based on absolute integral values were calculated with commercially available software (OriginPro 9.0G) and yielded the half-lives t1/2(1) and t1/2(2) of the prodrugs via one determination.

[2] = test system: pig liver esterase (PLE); test: Enzymatic hydrolysis with pig liver esterase (PLE) in PBS; type: in vitro ADME; conditions: PLE in PBS pH 7.3, 37 °C; for t1/2(1) PLE: removal of first masking unit (half-lives of 3); for t1/2(2) PLE: second hydrolysis step, half-lives of intermediate 4
Procedure: Furthermore, 140 μl of the 6.0 mM solution was diluted with 105 μl DMSO-d6 and 700 μl 50 mM PBS buffer. The reaction was started by addition of 52.5 μl of PLE in PBS buffer (3 mg ml^−1) and the mixture was incubated at 37 °C in a thermomixer. At different times, aliquots (125 μl) were taken and treated as follows: (a) for 3a–g,l,m and 4a,e the reaction was stopped by addition to 132.5 μl MeOH. […] (b) For 3h,i,k,n and 4j, the sample was directly frozen in liquid nitrogen.

[3] = test system: HIV-2(ROD); test: Anti-HIV activity assay, HIV-2 in TK-deficient CEM/TK− cells; type: cell-based; conditions: thymidine kinase-deficient CEM/TK− cells, mean±s.d., n=2–3
Procedure: (§1) Inhibition of HIV-1(IIIB)- and HIV-2(ROD)-induced cytopathicity in wild-type CEM/0 and TK-deficient CEM/TK^− cell cultures was measured in microtitre 96-well plates containing ∼3 × 10^5 CEM cells ml^−1 infected with 100 CCID50 of HIV per millilitre and containing appropriate dilutions of the test compounds. After 4−5 days of incubation at 37 °C in a CO2-controlled humidified atmosphere, CEM giant (syncytium) cell formation was examined microscopically. The EC50 (50% effective concentration) was defined as the compound concentration required to inhibit HIV-induced giant cell formation by 50%.

[4] = test system: CD4+ T-cell (CEM); test: Cytotoxicity: inhibition of CEM cell proliferation; type: cell-based, human; conditions: 50% cytostatic concentration, mean±s.d., n=2–3
[5] = test system: HIV-1(IIIB); test: Anti-HIV activity assay, HIV-1 in wild-type CEM/0 cells; type: cell-based; conditions: HIV-induced giant cell formation, mean±s.d., n=2–3
Procedure: as §1

[6] = test system: HIV-2(ROD); test: Anti-HIV activity assay, HIV-2 in wild-type CEM/0 cells; type: cell-based; conditions: read-out: EC50 CEM HIV-2
Procedure: as §1

[7] = Enzyme-catalysed hydrolysis in CEM cell extracts; conditions: human CEM cell extract, 37 °C
Procedure: The hydrolysis mixtures were analysed by means of analytical RP-18-HPLC.
A volume of 10 μl of the appropriate 50 mM DMSO-d6 stock solution was diluted to 6.0 mM hydrolysis solution by addition of 73.3 μl DMSO-d6. Seven different samples including 10 μl water and 10 μl hydrolysis solution were prepared. The reaction was started by addition of 50 μl human CEM cell extract and the mixture was incubated at 37 °C for different time periods of hydrolysis. The work-up depended on the particular compound: (a) for 3a–f,l,m,p and 4a,e the reactions were stopped by addition of 150 μl MeOH. The solution was kept on ice for 5 min followed by centrifugation for 5 min (13,000 r.p.m.). The supernatants were filtered (Chromafil RC-20/15 MS, 0.2 μm) and stored in liquid nitrogen. (b) For 3g–i,k,n and 4j, the samples were directly frozen in liquid nitrogen. The solution was defrosted followed by ultrasonication for 10 min. After centrifugation for 5 min the supernatants were filtered (Chromafil AO-20/3, 0.2 μm) and stored at −196 °C. (c) For 3j the mixture was diluted with 70 μl THF (HPLC grade) and frozen in liquid nitrogen followed by defrosting, ultrasonication, centrifugation, filtration and stored as described for (b). Samples were defrosted and 50–80 μl were subjected to HPLC analysis.
Human CD4^+ T-lymphocyte CEM cells were grown in RPMI-1640-based cell culture medium to a final density of ∼3·10^6 cells ml^−1. Then, cells were centrifuged for 10 min at 1,250 r.p.m. at 4 °C, washed twice with cold PBS and the pellet was resuspended at 10^8 cells ml^−1 and sonicated (Hielscher Ultrasound Techn., 100% amplitude, three·times for 10 s) to destroy cell integrity. The resulting cell suspension was then centrifuged at 10,000 r.p.m. to remove cell debris, and the supernatant divided into aliquots before being frozen at −80 °C and used.

[8] = Cytotoxicity: inhibition of CEM cell proliferation; type: cell-based, human; conditions: human, CEM cells (CD4+ T-cells), 50% cytostatic concentration, mean±s.d., n=2–3
[9] = wild-type CEM cells, HIV-induced giant cell formation, mean±s.d., n=2–3

| SMILES | t1/2(1) PBS, pH=7.3 [1] [h] | t1/2(2) PBS, pH=7.3 [1] [h] | t1/2(1) PLE [2] [h] | EC50 [3] [µM] | CC50 [4] [µM] | EC50 [5] [µM] | EC50 [6, 9] [µM] | t1/2(1) CEM [7] [h] | t1/2(2) PLE [2] [h] | time in which amount of thymine doubles (cleavage of the glycosidic bond) ([1]; long chemical hydrolysis time periods) [h] | EC50 ([3]; Human immunodeficiency virus 2) [µM] | CC50 [8] [µM] | EC50 ([5]; Human immunodeficiency virus 1, IIIB, CCRF-CEM) [µM] | EC50 ([6]; Human immunodeficiency virus 2, CCRF-CEM) [µM] |
| --- | --- | --- | --- | --- | --- | --- | --- | --- | --- | --- | --- | --- | --- | --- |
| CCCCCCCCCCCCCCCCCC(=O)Oc1ccc(COP(=O)(OCc2ccc(OC(=O)CCCCCCCCCCCCCCCCC)cc2)OP(=O)(O)OP(=O)(O)OC[C@@H]2C=C[C@H](n3cc(C)c(=O)[nH]c3=O)O2)cc1 [3j, γ-Bis-(4-octadecanoyloxybenzyl)-d4TTP] | 50 | 583 | 37 | 0.28 ± 0.04 | 29 ± 9 | 0.17 | 0.31 | 13 | – | – | – | – | – | – |
| CCCCCCCC/C=C\CCCCCCCC(=O)Oc1ccc(COP(=O)(OCc2ccc(OC(=O)CCCCCCC/C=C\CCCCCCCC)cc2)OP(=O)(O)OP(=O)(O)OC[C@@H]2C=C[C@H](n3cc(C)c(=O)[nH]c3=O)O2)cc1 [3k, γ-Bis(4-(Z)-octadec-9-enoyloxybenzyl)-d4TTP] | 27 | 92 | 42 | 0.93 ± 0.47 | 25 ± 1 | 0.3 ± 0.01 | 0.47 ± 0.1 | 4.3 | – | – | – | – | – | – |
| COC(=O)Oc1ccc(COP(=O)(OCc2ccc(OC(=O)OC)cc2)OP(=O)(O)OP(=O)(O)OC[C@@H]2C=C[C@H](n3cc(C)c(=O)[nH]c3=O)O2)cc1 [3l, γ-Bis-(4-methyloxycarbonyloxybenzyl)-d4TTP] | 24 | 200 | 3.8 | > 10 | 16 ± 1 | 0.4 | 0.92 ± 0.12 | 0.97 | 177 | – | – | – | – | – |
| CCCCCCCCOC(=O)Oc1ccc(COP(=O)(OCc2ccc(OC(=O)OCCCCCCCC)cc2)OP(=O)(O)OP(=O)(O)OC[C@@H]2C=C[C@H](n3cc(C)c(=O)[nH]c3=O)O2)cc1 [3m, γ-Bis-(4-octyloxycarbonyloxybenzyl)-d4TTP] | 82 | 590 | 0.12 | 1.26 | 51 ± 5 | 0.36 ± 0.06 | 0.47 ± 0.1 | 2.6 | 17 | – | – | – | – | – |
| CCCCCCCCCCCCOC(=O)Oc1ccc(COP(=O)(OCc2ccc(OC(=O)OCCCCCCCCCCCC)cc2)OP(=O)(O)OP(=O)(O)OC[C@@H]2C=C[C@H](n3cc(C)c(=O)[nH]c3=O)O2)cc1 [3n, γ-Bis-(4-dodecyloxycarbonyloxybenzyl)-d4TTP] | 99 | 631 | 44 | 1.26 | 41 ± 12 | 0.5 ± 0.14 | 0.69 ± 0.21 | 3.0 | – | – | – | – | – | – |
| Cc1cn([C@H]2C=C[C@@H](CO)O2)c(=O)[nH]c1=O [d4T, 3′-deoxy-2′,3′-didehydrothymidine, reference compound] | – | – | – | – | – | – | – | – | – | 63 | 150 ± 9 | 79 ± 3 | 0.33 ± 0.11 | 0.89 |
